{"source": "patent US20260266798A1", "about": "“SYSTEMS AND METHODS REGARDING PEAK EXPLORATION AND ARTIFICIAL TISSUE RESPONSE INCLUDING FOR CONTRACTION TYPE CLASSIFICATION OF ENGINEERED TISSUE” (VALO HEALTH, INC., priority 2023, published 2026)", "system": "artificial tissue", "assay": "Contraction type classification (single/double) of contractile force waveforms of artificial tissue under baseline and perturbed conditions (FIG. 27)", "assay_type": "cell-based", "conditions": "functional response = contractile force; first and second (increasing) dose of isoproterenol vs reference/control conditions; shown most clearly at the second dose", "description": "The waveforms comprise functional responses (contractile force) of an artificial tissue under baseline conditions and two perturbed conditions. Examples of perturbed conditions are treatment of a tissue with a drug or compound, different cell lines, different disease states, physical perturbation of the artificial tissue, changes made to the platform or bioreactor containing the artificial tissue, and the like. The baseline waveform 2702, the first perturbed waveform 2704, and the second perturbed waveform 2706 are associated with a baseline classification vector 2708, a first perturbed classification vector 2710, and a second perturbed classification vector 2712 respectively. […]\nThe classification vectors (e.g., the baseline classification vector 2708) are obtained by extracting a plurality of functional response waveforms from each waveform (as described in more detail below in relation to FIG. 33) and then determining a contraction type for each functional response waveform using a prediction model (e.g., the prediction model 600 described above in relation to FIGS. 6 and 7). […] In contrast, the third classification value 2720 is a double contraction type (as indicated by the dark gray shading) because the associated functional response waveform 2724 is determined by the prediction model to contain a double contraction. […]"}
{"smiles": "CC(C)NCC(O)c1ccc(O)c(O)c1", "note": "(stereo not shown) [isoproterenol]", "values": [{"measurement": "contraction type classification vector of the perturbed waveforms compared to the baseline classification vector", "value": "induces regular double contractions of the artificial tissue"}]}
